Results on four molecules are retold here after patent US20080051284A1, “Fungicidal Mixtures for Controlling Rice Pathogens” (BASF AKTIENGESELLSCHAFT, priority 2003, published 2008).

For this assay, the system named is Corticium sasakii. Briefly: Activity against sheath blight on rice caused by Corticium sasakii (protective spray, rice plants cultivar Tai-Nong 67). The class given is in vivo. The conditions noted are these: individual active compound, 11 days after infection. As to the method: The active compounds, separately or jointly, were prepared as a stock solution with 0.25% by weight of active compound in acetone or DMSO. 1% by weight of the emulsifier Uniperol® EL (wetting agent having emulsifying and dispersing action based on ethoxylated alkylphenols) was added to this solution, and the solution was diluted with water to the desired concentration.
Use Example—Activity Against Sheath Blight on Rice Caused by Corticium sasakii
Pots of rice plants of the cultivar “Tai-Nong 67” were sprayed to runoff point with an aqueous suspension having the concentration of active compound stated below. The next day, oat grains infected with Corticium sasakii were placed into the pots (in each case 5 grains per pot). The plants were then placed in a chamber at 26° C. and maximum atmospheric humidity. After 11 days, the sheath blight on the untreated but infected control plants had developed to such an extent that the infection could be determined visually in %.
Evaluation is carried out by determining the infected leaf areas in percent. These percentages were converted into efficacies.
The efficacy (E) is calculated as follows using Abbot's formula:
E=(1−α/β)·100 • α corresponds to the fungicidal infection of the treated plants in % and • β corresponds to the fungicidal infection of the untreated (control) plants in %
An efficacy of 0 means that the infection level of the treated plants corresponds to that of the untreated control plants; an efficacy of 100 means that the treated plants are not infected.
The expected efficacies of the mixtures of active compounds are determined using Colby's formula [R. S. Colby, Weeds 15, 20-22 (1967)] and compared with the observed efficacies.
E=x+y−x·y/100 • E expected efficacy, expressed in % of the untreated control, when using the mixture of the active compounds A and B at the concentrations a and b • x efficacy, expressed in % of the untreated control, when using active compound A at the concentration a • y efficacy, expressed in % of the untreated control, when using active compound B at the concentration b

For the molecule `CC1CCN(c2c(-c3c(F)cccc3Cl)c(Cl)nc3ncnn23)CC1` [A], under “4 ppm in the spray liquor”, the “Efficacy in % of the untreated control” value turned out to be 12%.
Take `CC(Nc1c(-c2c(F)cc(F)cc2F)c(Cl)nc2ncnn12)C(F)(F)F` (stereo not drawn) [B]: the “Efficacy in % of the untreated control” value (4 ppm in the spray liquor) is given as 56%.
For the molecule `CC1CCN(c2c(-c3c(F)cc(F)cc3F)c(Cl)nc3ncnn23)CC1` [I, 5-chloro-7-(4-methylpiperidin-1-yl)-6-(2,4,6-trifluorophenyl)-[1,2,4]tri-azolo[1,5-a]pyrimidine], the “Efficacy in % of the untreated control” value (4 ppm in the spray liquor) turned out to be 34%.
On to `N#Cc1c(Cl)c(Cl)c(Cl)c(C#N)c1Cl` [II, 2,4,5,6-tetrachloroisophthalonitrile], for which the “Efficacy in % of the untreated control” value was 0% (1 ppm in the spray liquor), 0% (4 ppm in the spray liquor) and 0% (16 ppm in the spray liquor).
